Laboratory results from PubChem BioAssay (NCI).
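Growth conditions: 96-well plates. Treatment: test compound, 48 hours, 5 concentrations. Analysis: linear interpolation between bracketing concentrations; unreached endpoints set to highest concentration. At the TGI there is no net growth.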

What was measured:
Test in all cases: NCI tumour cell line growth inhibition, 48 h
RXF-631 renal = tested on: RXF-631 renal
DMS 273 small cell lung = tested on: DMS 273 small cell lung
M14 melanoma = tested on: M14 melanoma
CAKI-1 renal = tested on: CAKI-1 renal
LXFL 529 NSCLC = tested on: LXFL 529 NSCLC
HCT-15 colon = tested on: HCT-15 colon
KM12 colon = tested on: KM12 colon
SK-MEL-28 melanoma = tested on: SK-MEL-28 melanoma
NCI-H460 lung = tested on: NCI-H460 lung
SK-MEL-5 melanoma = tested on: SK-MEL-5 melanoma
CCRF-CEM leukemia = tested on: CCRF-CEM leukemia
K-562 leukemia = tested on: K-562 leukemia
OVCAR-4 ovarian = tested on: OVCAR-4 ovarian
HCT-116 colon = tested on: HCT-116 colon
HOP-62 NSCLC = tested on: HOP-62 NSCLC
SF-268 CNS = tested on: SF-268 CNS
NCI-H226 lung = tested on: NCI-H226 lung
U251 CNS = tested on: U251 CNS
UACC-257 melanoma = tested on: UACC-257 melanoma
DLD-1 colon = tested on: DLD-1 colon
TK-10 renal = tested on: TK-10 renal
MOLT-4 leukemia = tested on: MOLT-4 leukemia
SK-MEL-2 melanoma = tested on: SK-MEL-2 melanoma
A549 NSCLC = tested on: A549 NSCLC
KM20L2 colon = tested on: KM20L2 colon
SNB-19 CNS = tested on: SNB-19 CNS
SN12C renal = tested on: SN12C renal
HCC-2998 colon = tested on: HCC-2998 colon
HOP-18 NSCLC = tested on: HOP-18 NSCLC
RPMI-8226 leukemia = tested on: RPMI-8226 leukemia
SNB-75 CNS = tested on: SNB-75 CNS
NCI-H522 lung = tested on: NCI-H522 lung
IGROV1 ovarian = tested on: IGROV1 ovarian
786-0 renal = tested on: 786-0 renal
SK-OV-3 ovarian = tested on: SK-OV-3 ovarian
SR leukemia = tested on: SR leukemia
UO-31 renal = tested on: UO-31 renal
SW-620 colon = tested on: SW-620 colon
ACHN renal = tested on: ACHN renal
MALME-3M melanoma = tested on: MALME-3M melanoma
DMS 114 small cell lung = tested on: DMS 114 small cell lung
RXF 393 renal = tested on: RXF 393 renal
COLO 205 colon = tested on: COLO 205 colon
HL-60(TB) leukemia = tested on: HL-60(TB) leukemia
OVCAR-3 ovarian = tested on: OVCAR-3 ovarian
OVCAR-8 ovarian = tested on: OVCAR-8 ovarian
M19-MEL melanoma = tested on: M19-MEL melanoma
EKVX NSCLC = tested on: EKVX NSCLC
SF-539 CNS = tested on: SF-539 CNS
SNB-78 CNS = tested on: SNB-78 CNS
A498 renal = tested on: A498 renal
UACC-62 melanoma = tested on: UACC-62 melanoma

Measured: TGI

C=CCC12CCC(=O)C=C1CCC1(C2)OCCO1 (configuration not stated)
> 100 µM: all assays above
